In one assay the test system is L. monocytogenes. Description: Effect of acriflavin on hemolytic activity of L. monocytogenes. Format: cell-based.
Another assay relates to Bacillus spp. Briefly: Inhibition of Bacillus spp. by acriflavin. Format: cell-based.

In the case of Acriflavin, the “Effect on hemolytic activity of L. monocytogenes” value in the assay with L. monocytogenes was “inhibits the hemolytic activity of L. monocytogenes”. In addition, the “Inhibition of Bacillus spp.” value in the assay on Bacillus spp. is on record as “consistently inhibits all of the Bacillus spp”.

Values taken from patent publication US7960164B2, “Selective growth medium for Listeria spp” (Paradigm Diagnostics, Inc., priority 2004, dated 2011).
